Assay results from BindingDB's records for doi:10.1016/j.bmcl.2003.11.084 (Liaoning Normal University, 2004).

Experiments:
[1] = Inhibitory activity against the wheat germ DNA topoisomerase I
[2] = Inhibitory activity against the calf thymus DNA topoisomerase I
[3] = Inhibitory activity against the wheat germ DNA topoisomerase I; remark: listed apart in the source

Row | SMILES | IC50 [1] | IC50 [2] | IC50 [3]
1 | c1coc(-c2cc(-c3cccs3)nc(-c3cccs3)c2)c1 [4-Furan-2-yl-2,6-di-thiophen-2-yl-pyridine] | 50 µM |  | 
2 | C(=C\c1ccco1)/c1cc(-c2ccco2)cc(-c2cccs2)n1 [4-Furan-2-yl-2-((E)-2-furan-2-yl-vinyl)-6-thiophen-2-yl-pyridine] |  | 200 µM | < 10 µM
3 | c1coc(-c2ccnc(-c3cccs3)c2)c1 [4-Furan-2-yl-2-thiophen-2-yl-pyridine] | 400 µM |  | 
